According to patent publication US12037302B1, “Compound for treatment of bacterial infections of different etiology in humans” (priority 2021, dated 2024):

Assays:
Streptococcus pneumoniae = test: Comparative in vitro zone diameter test on Müler-Hinton-Agar; format: cell-based; details: amount used: novel compound 0.05 mL, Cephalosporin 0.1 mL, Ampicillin 0.2 mL
Text: (§1) Here are the findings of the comparative examination of selected pathogens against the novel compound and the antibiotics Cephalosporin and Ampicillin:
(§2) Evaluation of the results by zone diameter: • 0 mm to 4 mm: resistant: R • 5 mm to 9 mm: moderately sensitive: MS • 10 mm to 15 mm: sensitive: S • 16 mm to 20 mm: very sensitive: VS • 21 mm and more: extremely sensitive: ES

Listeria monocytogenes = test: as above; format: cell-based; details: amount used: novel compound 0.05 mL, Cephalosporin 0.1 mL, Ampicillin 0.2 mL
Text: as §1, §2

Streptococcus uberis = test: as above; format: cell-based; details: amount used: novel compound 0.05 mL, Cephalosporin 0.1 mL, Ampicillin 0.2 mL
Text: as §1, §2

Escherichia coli O157:H7 = test: as above; format: cell-based; details: amount used: novel compound 0.05 mL, Cephalosporin 0.1 mL, Ampicillin 0.2 mL
Text: as §1, §2

Staphylococcus aureus = test: as above; format: cell-based; details: amount used: novel compound 0.05 mL, Cephalosporin 0.1 mL, Ampicillin 0.2 mL
Text: as §1, §2

[1] = system: Salmonella typhimurium DT104; test: as above; format: cell-based; details: amount used: novel compound 0.05 mL, Cephalosporin 0.1 mL, Ampicillin 0.2 mL
Text: as §1, §2

Streptococcus pyogenes = test: as above; format: cell-based; details: amount used: novel compound 0.05 mL, Cephalosporin 0.1 mL, Ampicillin 0.2 mL
Text: as §1, §2

mice [2] = test: Acute toxicity LD50, peroral application (p.o.), mice; format: in vivo
Text: (§3) Both mice and rats were specially selected for the testing of the toxicity of the compounds, medicine, and chemicals. […] Groups of one hundred (100) lab mice and rats of both genders were placed into glass compartments. They were regularly consuming food manufactured for these lab animals. Water consumption was always available.
(§4) The peroral application (p.o.) acute toxicity LD50 testing was done using the standard procedure: application p.o. with the special lab pipette easy to administer liquid product: orally to the lab animals.
Breathing and cardiac functions were regular, function of thorax was regular and without visual changes. Discomfort symptoms were noticed after the applications, disappeared after 1-3 min, diverse from mouse to mouse.

mice [3] = test: Acute toxicity LD50, intraperitoneal (i.p.) injection, mice; format: in vivo
Text: as §3
(§5) Intraperitoneal testing of the compound LD50 i.e. by pharmaceutical lab needle and syringe, designed for the easy application to the lab animals intraperitoneally.
Breathing and cardiac functions were regular, function of thorax was regular and without visual changes. Discomfort symptoms noticed after the applications, disappeared after 3-5 min, diverse from mouse to mouse.

rats [4] = test: Acute toxicity LD50, intraperitoneal (i.p.) injection, rats; format: in vivo
Text: as §3, §5
Breathing and cardiac functions were regular, function of thorax was regular and without visual changes. Discomfort symptoms noticed after the applications, disappeared after 5-6 min, diverse from rat to rat.

rats [5] = test: Acute toxicity LD50, peroral application (p.o.), rats; format: in vivo
Text: as §3, §4
Breathing and cardiac functions were regular, function of thorax was regular and without visual changes. Discomfort symptoms noticed after the applications, disappeared after 1-3 min, diverse from rat to rat.

CC1(C)S[C@@H]2[C@H](NC(=O)[C@H](N)c3ccccc3)C(=O)N2[C@H]1C(=O)O [Ampicilin, Ampicillin]
R (evaluation by zone diameter) (Streptococcus pneumoniae): R (0 mm to 4 mm: resistant: R) | zone diameter (Streptococcus pneumoniae): 0 mm | R (evaluation by zone diameter) (Listeria monocytogenes): MS (5 mm to 9 mm: moderately sensitive: MS) | zone diameter (Listeria monocytogenes): 7 mm | R (evaluation by zone diameter) (Streptococcus uberis): R (0 mm to 4 mm: resistant: R) | zone diameter (Streptococcus uberis): 0 mm | R (evaluation by zone diameter) (Escherichia coli O157:H7): MS (5 mm to 9 mm: moderately sensitive: MS) | zone diameter (Escherichia coli O157:H7): 7 mm | R (evaluation by zone diameter) (Staphylococcus aureus): R (0 mm to 4 mm: resistant: R) | zone diameter (Staphylococcus aureus): 0 mm | R (evaluation by zone diameter) [1]: MS (5 mm to 9 mm: moderately sensitive: MS) | zone diameter [1]: 6 mm | R (evaluation by zone diameter) (Streptococcus pyogenes): R (0 mm to 4 mm: resistant: R) | zone diameter (Streptococcus pyogenes): 3 mm

CCN(CC)CC(=O)Nc1c(C)cccc1C.Cc1cc([N+](=O)[O-])c(C(C)C)c([N+](=O)[O-])c1O [Novel Compound, 2,4-dinitro-5-isopropyl-2-methylphenoxy-N-(2,6-dimethylphenylium)-N2,N2-diethylglycinamide]
toxicity conclusion (mice [2]; orally (p.o.), applied doses): low toxic | oral LD50 (mice [2]; p.o.): over 2,000 μL/kg | animals that changed their behavior and demonstrated light discomfort, running, anxiety (mice [2]; p.o., 2,000 μL/kg): 23 mice out of one hundred (100) | time after which discomfort symptoms disappeared (mice [2]; p.o., 2,000 μL/kg): 1 to 3 min | lethality during the test (mice [2]; p.o., doses up to 2,000 μL/kg): No mouse has ended lethally | Intraperitoneal LD50 (mice [3]; i.p.): over 1,550 μL/kg | animals that changed their behavior and demonstrated discomfort, running, anxiety (mice [3]; i.p., 1,550 μL/kg): 21 mice out of one hundred (100) | time after which discomfort symptoms disappeared (mice [3]; i.p., 1,550 μL/kg): 3 to 5 min | toxicity conclusion (mice [3]; i.p., applied doses): low toxic | lethality during the test (mice [3]; i.p., doses up to 1,550 μL/kg): No mouse has ended lethally | R (evaluation by zone diameter) (Streptococcus pneumoniae): ES (21 mm and more: extremely sensitive: ES) | zone diameter (Streptococcus pneumoniae): 31 mm | R (evaluation by zone diameter) (Listeria monocytogenes): ES (21 mm and more: extremely sensitive: ES) | zone diameter (Listeria monocytogenes): 33 mm | R (evaluation by zone diameter) (Streptococcus uberis): ES (21 mm and more: extremely sensitive: ES) | zone diameter (Streptococcus uberis): 32 mm | R (evaluation by zone diameter) (Escherichia coli O157:H7): ES (21 mm and more: extremely sensitive: ES) | zone diameter (Escherichia coli O157:H7): 24 mm | R (evaluation by zone diameter) (Staphylococcus aureus): ES (21 mm and more: extremely sensitive: ES) | zone diameter (Staphylococcus aureus): 27 mm | R (evaluation by zone diameter) [1]: ES (21 mm and more: extremely sensitive: ES) | zone diameter [1]: 25 mm | R (evaluation by zone diameter) (Streptococcus pyogenes): ES (21 mm and more: extremely sensitive: ES) | zone diameter (Streptococcus pyogenes): 29 mm | Intraperitoneal LD50 (rats [4]; i.p.): over 1,750 ML/kg | animals that changed their behavior and demonstrated discomfort, running, anxiety (rats [4]; i.p., 1,750 μL/kg): 29 rats out of one hundred (100) | time after which discomfort symptoms disappeared (rats [4]; i.p., 1,750 μL/kg): 5 to 6 min | toxicity conclusion (rats [4]; i.p., applied doses): low toxic | lethality during the test (rats [4]; i.p., doses up to 1,750 μL/kg): No rat has passed lethally | toxicity conclusion (rats [5]; orally (p.o.), applied doses): low toxic | oral LD50 (rats [5]; p.o.): over 2,250 μL/kg | animals that changed their behavior and demonstrated light discomfort, running, anxiety (rats [5]; p.o., 2,250 μL/kg): 37 rats out of one hundred (100) | time after which discomfort symptoms disappeared (rats [5]; p.o., 2,250 μL/kg): 1 to 3 min | lethality during the test (rats [5]; p.o., doses up to 2,250 μL/kg): No rat has ended lethally
